We go through 28 molecules from patent US5039805A, “Novel benzoic and phenylacetic acid derivatives” (Hoffmann-La Roche Inc., priority 1988, dated 1991).

In data set [1] the target is T1, fibrinogen receptor, glycoprotein IIb/IIIa (Homo sapiens, UniProt P05106+P08514).
T1 construct: obtained from Triton X-100 extracts of human blood platelets; from tissue
Description: inhibition of the binding of fibrinogen to the immobilized fibrinogen receptor (ELISA). The conditions noted are these: fibrinogen binding to immobilized glycoprotein IIb/IIIa from human blood platelets, read-out: IC50 (inhibition of the binding of fibrinogen to the immobilized receptor by 50%). As to the method:
The glycoprotein IIb/IIIa is obtained from Triton X-100 extracts of human blood platelets and is purified by lectin affinity chromatography (Analytical Biochemistry 151, 1985, 169-177) and chromatography on an Arg-Gly-Asp-Ser affinity column (Science 231, 1986, 1559-62). The thus-obtained receptor protein is bonded to microtitre plates. The specific binding of fibrinogen to the immobilized receptor is determined with the aid of an ELISA system ("enzyme-linked immunosorbent assay"). The IC50 values hereinafter correspond to that concentration of the test substance which is required to inhibit the binding of fibrinogen to the immobilized receptor by 50%: […]

The nature of data set [2]: LD50 in the mouse (acute toxicity). The conditions noted are these: in vivo. The procedure: The compounds of formula I are non-toxic. Thus, the product of Example 10 has a LD50 of more than 1000 mg/kg intraperitoneally and more than 2000 mg/kg perorally in the mouse.

Each structure is given as a SMILES string. Where a SMILES comes first, the peptide text is derived from it. [ ]: non-standard residue; d: D form. The star is where a group is joined. 3Abz = Nc1cccc(C(=O)O)c1; Boc = CC(C)(C)OC(=O)*

T1 sequence (P08514 32-887 limits assumed): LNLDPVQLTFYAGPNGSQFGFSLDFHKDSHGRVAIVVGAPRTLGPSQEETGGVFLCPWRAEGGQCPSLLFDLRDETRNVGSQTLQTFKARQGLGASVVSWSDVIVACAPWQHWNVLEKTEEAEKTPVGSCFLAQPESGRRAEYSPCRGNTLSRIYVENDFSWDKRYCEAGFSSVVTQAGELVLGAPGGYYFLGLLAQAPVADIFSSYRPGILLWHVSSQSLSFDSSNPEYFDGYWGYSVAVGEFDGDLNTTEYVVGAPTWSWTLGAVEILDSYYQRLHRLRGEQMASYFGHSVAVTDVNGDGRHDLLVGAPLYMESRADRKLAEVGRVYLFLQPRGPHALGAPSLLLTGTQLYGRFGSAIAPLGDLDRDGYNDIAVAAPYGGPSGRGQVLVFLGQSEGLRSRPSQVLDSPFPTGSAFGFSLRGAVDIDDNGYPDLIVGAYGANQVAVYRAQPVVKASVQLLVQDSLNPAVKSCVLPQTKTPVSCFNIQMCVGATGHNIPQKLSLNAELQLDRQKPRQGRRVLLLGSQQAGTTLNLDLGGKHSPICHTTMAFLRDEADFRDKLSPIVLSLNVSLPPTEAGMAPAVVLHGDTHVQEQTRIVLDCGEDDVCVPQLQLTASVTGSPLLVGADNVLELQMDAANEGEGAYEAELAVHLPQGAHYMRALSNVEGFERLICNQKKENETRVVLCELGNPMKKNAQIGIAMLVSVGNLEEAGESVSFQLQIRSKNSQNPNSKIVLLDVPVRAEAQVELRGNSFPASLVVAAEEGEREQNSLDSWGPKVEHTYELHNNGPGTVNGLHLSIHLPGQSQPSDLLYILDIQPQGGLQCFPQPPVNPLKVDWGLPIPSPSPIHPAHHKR
T1 sequence (P08514 891-1039 limits assumed): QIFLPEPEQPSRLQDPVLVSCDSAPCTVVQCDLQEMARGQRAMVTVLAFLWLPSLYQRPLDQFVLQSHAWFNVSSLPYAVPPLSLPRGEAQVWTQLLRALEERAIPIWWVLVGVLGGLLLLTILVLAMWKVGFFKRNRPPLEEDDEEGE
T1 sequence (P05106 27-788): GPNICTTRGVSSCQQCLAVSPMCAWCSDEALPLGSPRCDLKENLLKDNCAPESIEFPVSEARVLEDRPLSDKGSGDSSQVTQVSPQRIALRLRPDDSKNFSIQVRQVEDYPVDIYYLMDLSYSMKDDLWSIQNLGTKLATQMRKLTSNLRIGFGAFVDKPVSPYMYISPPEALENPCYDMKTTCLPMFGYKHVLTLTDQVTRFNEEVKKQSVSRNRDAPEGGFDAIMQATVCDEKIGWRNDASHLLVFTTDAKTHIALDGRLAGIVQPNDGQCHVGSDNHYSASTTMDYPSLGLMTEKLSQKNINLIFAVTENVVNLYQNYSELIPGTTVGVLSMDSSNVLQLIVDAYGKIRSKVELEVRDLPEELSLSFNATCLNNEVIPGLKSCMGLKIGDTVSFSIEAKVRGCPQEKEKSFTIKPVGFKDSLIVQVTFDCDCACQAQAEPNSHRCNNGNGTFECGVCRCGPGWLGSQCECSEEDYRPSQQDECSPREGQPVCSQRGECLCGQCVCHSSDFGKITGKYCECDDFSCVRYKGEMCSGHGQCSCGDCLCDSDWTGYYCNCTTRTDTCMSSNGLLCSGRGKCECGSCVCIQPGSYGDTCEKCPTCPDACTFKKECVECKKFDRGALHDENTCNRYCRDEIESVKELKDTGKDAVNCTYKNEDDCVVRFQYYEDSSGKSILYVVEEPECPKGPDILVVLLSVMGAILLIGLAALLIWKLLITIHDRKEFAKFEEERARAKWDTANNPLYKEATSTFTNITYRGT

A word on the IC50: it is the concentration needed to halve the response being measured. Consider `COC(=O)[C@H](CC(=O)O)NC(=O)c1cccc(NC(=O)c2ccc(C(=N)N)cc2)c1` [Example 60, (S)-3-[m-(p-amidinobenzamido)benzamido]-3-(methoxycarbonyl)propionic acid], for which the IC50 in data set [1] turned out to be 50 nM.

Consider `N=C(N)c1ccc(C(=O)Nc2ccc(OCc3ccccc3)c(C(=O)NCCC(=O)O)c2)cc1` [Example 54, N-[5-(p-amidinobenzamido)-2-(benzyloxy)benzoyl]-β-alanine], for which the IC50 in data set [1] amounted to 10 nM.

As to `N=C(N)c1ccc(CC(=O)Nc2cccc(C(=O)N[C@@H](CC(=O)O)C(=O)N[C@@H](Cc3ccccc3)C(=O)O)c2)cc1` [Example 65, N-[N-[m-[2-(p-amidinophenyl)acetamido]benzoyl]-L-α-aspartyl]-3-phenyl-L-alanine], in data set [1], the IC50 is 84 nM.

As for `N=C(N)NCCCC(=O)Nc1cccc(C(=O)NCCC(=O)O)c1` [Example 24, N-[m-(4-guanidinobutyramido)benzoyl]-β-alanine], the IC50 in data set [1] is 380 nM.

On to `NCc1ccc(C(=O)Nc2cccc(C(=O)NCCC(=O)O)c2)cc1` [Example 8, N-[m-(α-amino-p-toluamido)benzoyl]-β-alanine], for which, in data set [1], the IC50 came out at 160 nM.

In the case of `N=C(N)c1ccc(C(=O)Nc2ccc(C(=O)NCCC(=O)O)cc2)cc1` [Example 51, N-[p-(p-amidinobenzamido)benzoyl]-β-alanine], the IC50 in data set [1] was 17 nM.

As for `N=C(N)NCCCCC(=O)Nc1ccc(OCc2ccccc2)c(C(=O)NCCC(=O)O)c1` [Example 47, N-[2-(benzyloxy)-5-(5-guanidinovaleramido)benzoyl]-β-alanine], in data set [1], the IC50 was 180 nM.

With `CC(C)(C)OC(=O)N[C@@H](CCCN)C(=O)Nc1cccc(C(=O)NCCC(=O)O)c1` [Example 28, N-[m-[[(S)-N2-(t-butoxycarbonyl)-L-ornithyl]amino]benzoyl]-β-alanine], the IC50 in data set [1] is 140 nM.

On to `NCCCCCC(=O)Nc1cccc(C(=O)NCCC(=O)O)c1` [Example 5, N-[m-(6-aminohexanamido)benzoyl]-β-alanine], for which, in data set [1], the IC50 is 270 nM.

With `N=C(N)NCCCCC(=O)Nc1cccc(C(=O)NCCC(=O)O)c1` [Example 22, N-[m-(5-guanidinovaleramido)benzoyl]-β-alanine], the IC50 in data set [1] was 250 nM.

As for `NCCCCC(=O)Nc1ccc(OCc2ccccc2)c(C(=O)NCCC(=O)O)c1` [Example 46, N-[5-(5-aminovaleramido)-2-(benzyloxy)benzoyl]-β-alanine], the concentration for half-maximal inhibition (IC50) in data set [1] is 150 nM.

For `O=C(O)CCNC(=O)c1cccc(NC(=O)CCC2CCNCC2)c1` [Example 53, N-[m-[3-(4-piperidinyl)propionamido]benzoyl]-β-alanine], the IC50 in data set [1] is 70 nM.

On to `CC(C)[C@H](NC(=O)[C@H](CC(=O)O)NC(=O)c1cccc(NC(=O)[C@H](CCCN=C(N)N)NC(=O)OC(C)(C)C)c1)C(=O)O` [Example 15, [m-(Boc-Arg-NH)benzoyl]-Asp-Val] (Boc-R[3Abz]DV-OH), for which the IC50 in data set [1] amounted to 80 nM.

Consider `NCc1ccc(CC(=O)Nc2cccc(C(=O)NCCC(=O)O)c2)cc1` [Example 32, N-[m-[2-(α-amino-p-tolyl)acetamido]benzoyl]-β-alanine], for which the IC50 in data set [1] amounted to 120 nM.

For `N=C(N)NCC(=O)Nc1cccc(C(=O)NCCC(=O)O)c1` [Example 36, N-[m-[(N-amidinoglycyl)amino]benzoyl]-β-alanine], in data set [1], the IC50 turned out to be 270 nM.

`N=C(N)NCc1ccc(C(=O)Nc2cccc(C(=O)NCCC(=O)O)c2)cc1` [Example 13, N-[m-(α-guanidino-p-toluamido)benzoyl]-β-alanine]: the 50% inhibitory concentration (IC50) in data set [1] was 220 nM.

For `N=C(N)c1ccc(C(=O)Nc2cccc(C(=O)NCCC(=O)O)c2)cc1` [Example 35, N-[m-(p-amidinobenzamido)-benzoyl]-β-alanine], the half-maximal inhibitory concentration (IC50) in data set [1] was determined as 0.1 nM.

In the case of `NCCCCCC(=O)Nc1ccc(Cl)c(C(=O)NCCC(=O)O)c1` [Example 17, N-[5-(6-aminohexanamido)-2-chlorobenzoyl]-β-alanine], in data set [1], the IC50 came to 380 nM.

Regarding `NCCCCC(=O)Nc1cccc(C(=O)NCCC(=O)O)c1` [Example 9, N-[m-(5-aminovaleramido)benzoyl]-β-alanine], the IC50 in data set [1] came to 240 nM.

Regarding `N=C(N)c1ccc(C(=O)Nc2cccc(C(=O)N[C@@H](CC(=O)O)C(=O)N[C@@H](Cc3cccc4ccccc34)C(=O)O)c2)cc1` [Example 34, N-[N-[m-(p-amidinobenzamido)benzoyl]-L-α-aspartyl]-3-(1-naphthyl)-L-alanine], the IC50 in data set [1] is 46 nM.

As to `N=C(N)N1CCC(C(=O)Nc2cccc(C(=O)N[C@@H](CC(=O)O)C(=O)N[C@@H](Cc3ccccc3)C(=O)O)c2)CC1` [Example 64, N-[N-[m-(1-amidino-4-piperidinecarboxamido)benzoyl]-L-α-aspartyl]-3-phenyl-L-alanine], the IC50 in data set [1] worked out at 220 nM.

Regarding `N=C(N)c1ccc(CC(=O)Nc2cccc(C(=O)NCCC(=O)O)c2)cc1` [Example 52, N-[m-[2-(p-amidinophenyl)acetamido]benzoyl]-β-alanine], in data set [1], the IC50 amounted to 140 nM.

As usually defined, the LD50 is the dose expected to kill half of the subjects tested. On to `N=C(N)NCCCCCC(=O)Nc1cccc(C(=O)NCCC(=O)O)c1` [Example 10, N-[m-(6-guanidinohexanamido)benzoyl]-β-alanine], for which the IC50 in data set [1] came to 260 nM. For the same molecule, the median lethal dose (LD50) in data set [2] (ip, intraperitoneally) is greater than 1000 mg/kg; in data set [2] (po, perorally), greater than 2000 mg/kg.

Consider `NCCCCCCC(=O)Nc1cccc(C(=O)NCCC(=O)O)c1` [Example 21, N-[m-(7-aminoheptanamido)benzoyl]-β-alanine], for which, in data set [1], the IC50 came to 460 nM.

In the case of `N=C(N)c1ccc(C(=O)Nc2cc(C(=O)NCCC(=O)O)ccc2OCc2ccccc2)cc1` [Example 55, N-[3-(p-amidinobenzamido)-4-(benzyloxy)benzoyl]-β-alanine], the 50% inhibitory concentration (IC50) in data set [1] is 25 nM.

With `NCCCCC(=O)Nc1cccc(C(=O)NC(CC(=O)O)c2ccc3c(c2)CCC3)c1` (racemic) [Example 41, DL-N-[m-(5-aminovaleramido)benzoyl]-3-(5-indanyl)-β-alanine], the IC50 in data set [1] worked out at 280 nM.

For `N=C(N)c1ccc(C(=O)Nc2cc(C(=O)NCCC(=O)O)ccc2O)cc1` [Example 56, N-[3-(p-amidinobenzamido)-4-hydroxybenzoyl]-β-alanine], the IC50 in data set [1] was determined as 5 nM.

Take `CC(C)[C@H](NC(=O)[C@H](CC(=O)O)NC(=O)c1cccc(NC(=O)[C@@H](N)CCCNC(=N)N)c1)C(=O)O` [Example 14, N-[N-[m-(L-arginylamino)benzoyl]-L-α-aspartyl]-L-valine] (H-R[3Abz]DV-OH): in data set [1], the IC50 is 300 nM.
